One block for each compound: values may come before it.
How the values were obtained:
[1] = target: T1, Serine/threonine-protein kinase pim-2 (Homo sapiens, UniProt Q9P1W9)
[2] = target: T2, Serine/threonine-protein kinase pim-3 (Homo sapiens, UniProt Q86V86)
[3] = target: T3, Serine/threonine-protein kinase pim-1 (Homo sapiens, UniProt P11309)
[4] = target: T3, Serine/threonine-protein kinase pim-1; assay: Inhibition of human PIM1 using KKRNRTLTK as substrate in presence of [gamma-33P]-ATP by hotspot kinase assay
MCF7 [5] = assay: Cytotoxicity against human MCF7 cells assessed as reduction in cell growth incubated for 72 hrs by MTT assay; format: functional, cell-based; details: MCF7, 72 h
HCT-116 [6] = assay: Cytotoxicity against human HCT-116 cells assessed as reduction in cell viability incubated for 72 hrs by MTT assay; format: functional, cell-based; details: HCT-116, 72 h
[7] = target: T1, Serine/threonine-protein kinase pim-2; assay: Inhibition of human PIM2 by ADP-Glo luminescent assay
HCT-116 [8] = assay: Antiproliferative activity against human HCT-116 cells assessed as inhibition of cell growth incubated for 72 hrs by celltiter-glo assay; format: functional, cell-based; details: HCT-116, 72 h
MV4-11 = assay: Antiproliferative activity against human MV4-11 cells assessed as inhibition of cell growth incubated for 72 hrs by Celltiter-glo assay; format: functional, cell-based; details: MV4-11, 72 h
[9] = target: T3, Serine/threonine-protein kinase pim-1; assay: Inhibition of human PIM1 by ADP Glo luminescent assay
HCT-116 [10] = assay: Antiproliferative activity against human HCT-116 cells assessed as inhibition of cell growth incubated for 24 hrs by MTT assay; format: functional, cell-based; details: HCT-116, 24 h
MCF7 [11] = assay: Antiproliferative activity against human MCF7 cells assessed as reduction in cell growth incubated for 48 hrs by MTT assay; format: functional, cell-based; details: MCF7, 48 h
[12] = Inhibition of PI3K (unknown origin); set-up: species or system Homo sapiens
[13] = target: Serine/threonine-protein kinase mTOR (Homo sapiens, UniProt P42345); assay: Inhibition of mTOR (unknown origin)
[14] = target: T1, Serine/threonine-protein kinase pim-2; assay: Binding affinity to PIM2 (unknown origin) assessed as inhibition constant
[15] = target: T3, Serine/threonine-protein kinase pim-1; assay: Binding affinity to PIM1 (unknown origin) assessed as inhibition constant
[16] = target: T3, Serine/threonine-protein kinase pim-1; assay: Inhibition of human PIM1 by discoverX kinome scan assay
[17] = target: T1, Serine/threonine-protein kinase pim-2; assay: Inhibition of N-terminal GST-tagged full length human PIM2 (1 to 311 residues) expressed in baculovirus expression system using S6K2 peptide as substrate at 1 uM in presence of ATP by Mobility shift assay
[18] = target: Prostaglandin G/H synthase 1 (Homo sapiens, UniProt P23219); assay: Inhibition of COX1 (unknown origin) fluorescence based analysis
Prostaglandin G/H synthase 1, sequence (P23219 whole entry): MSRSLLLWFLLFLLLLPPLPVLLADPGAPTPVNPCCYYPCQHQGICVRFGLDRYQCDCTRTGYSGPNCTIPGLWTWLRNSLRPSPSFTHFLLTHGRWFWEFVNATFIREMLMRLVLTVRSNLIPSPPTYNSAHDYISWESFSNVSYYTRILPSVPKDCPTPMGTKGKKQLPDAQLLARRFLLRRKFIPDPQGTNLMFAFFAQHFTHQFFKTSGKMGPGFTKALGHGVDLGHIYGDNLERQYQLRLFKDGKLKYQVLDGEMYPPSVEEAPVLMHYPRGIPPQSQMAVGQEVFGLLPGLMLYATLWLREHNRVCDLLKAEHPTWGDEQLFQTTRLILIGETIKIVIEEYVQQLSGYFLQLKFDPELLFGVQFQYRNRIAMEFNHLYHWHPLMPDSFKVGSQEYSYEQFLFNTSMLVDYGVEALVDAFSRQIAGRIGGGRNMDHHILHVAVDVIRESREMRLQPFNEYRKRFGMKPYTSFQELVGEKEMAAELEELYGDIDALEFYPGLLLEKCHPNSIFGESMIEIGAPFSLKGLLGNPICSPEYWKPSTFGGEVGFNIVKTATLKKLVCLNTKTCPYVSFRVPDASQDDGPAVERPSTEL

[19] = target: T4, Polyunsaturated fatty acid 5-lipoxygenase (Homo sapiens, UniProt P09917); assay: Inhibition of 5-LOX in human PMNL cells; format: cell-based
T4 sequence (P09917 whole entry): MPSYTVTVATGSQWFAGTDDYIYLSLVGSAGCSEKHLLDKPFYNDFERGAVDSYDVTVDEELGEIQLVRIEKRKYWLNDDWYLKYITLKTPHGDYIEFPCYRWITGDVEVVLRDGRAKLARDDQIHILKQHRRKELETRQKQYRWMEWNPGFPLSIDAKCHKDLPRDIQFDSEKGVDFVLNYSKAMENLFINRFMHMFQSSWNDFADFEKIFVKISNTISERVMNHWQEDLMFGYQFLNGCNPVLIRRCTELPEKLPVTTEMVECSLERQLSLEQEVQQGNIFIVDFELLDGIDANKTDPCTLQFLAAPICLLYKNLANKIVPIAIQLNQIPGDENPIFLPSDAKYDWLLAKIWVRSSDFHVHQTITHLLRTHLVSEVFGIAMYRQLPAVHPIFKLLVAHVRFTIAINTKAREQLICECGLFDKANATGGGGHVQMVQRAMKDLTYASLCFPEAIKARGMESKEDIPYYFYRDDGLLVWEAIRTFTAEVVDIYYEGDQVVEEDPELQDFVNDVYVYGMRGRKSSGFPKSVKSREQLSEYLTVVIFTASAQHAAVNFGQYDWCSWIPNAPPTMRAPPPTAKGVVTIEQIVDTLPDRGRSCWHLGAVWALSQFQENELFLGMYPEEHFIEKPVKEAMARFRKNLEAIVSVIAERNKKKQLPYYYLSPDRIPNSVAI

[20] = target: T5, Prostaglandin G/H synthase 2 (Homo sapiens, UniProt P35354); assay: Inhibition of COX2 (unknown origin) fluorescence based analysis
T5 sequence (P35354 whole entry): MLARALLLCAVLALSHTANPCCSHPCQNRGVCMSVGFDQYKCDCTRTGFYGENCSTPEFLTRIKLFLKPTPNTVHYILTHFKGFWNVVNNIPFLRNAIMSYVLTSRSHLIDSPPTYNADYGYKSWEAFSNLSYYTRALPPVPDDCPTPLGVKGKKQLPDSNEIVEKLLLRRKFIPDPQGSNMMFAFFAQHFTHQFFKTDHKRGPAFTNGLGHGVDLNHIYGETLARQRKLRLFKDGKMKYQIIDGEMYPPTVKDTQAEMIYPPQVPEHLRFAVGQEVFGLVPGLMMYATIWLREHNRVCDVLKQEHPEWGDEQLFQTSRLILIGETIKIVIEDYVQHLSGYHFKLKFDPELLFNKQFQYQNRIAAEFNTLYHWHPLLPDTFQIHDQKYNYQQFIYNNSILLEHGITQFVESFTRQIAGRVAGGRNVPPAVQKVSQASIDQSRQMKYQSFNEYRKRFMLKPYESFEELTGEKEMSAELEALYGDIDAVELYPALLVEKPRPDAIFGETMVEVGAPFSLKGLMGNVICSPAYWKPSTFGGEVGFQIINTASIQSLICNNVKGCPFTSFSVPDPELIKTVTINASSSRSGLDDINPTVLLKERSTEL

[21] = target: T3, Serine/threonine-protein kinase pim-1; assay: Inhibition of human recombinant PIM1
[22] = target: T2, Serine/threonine-protein kinase pim-3; assay: Inhibition of PIM3 (unknown origin) by FRET based Z-LYTE kinase assay
[23] = target: T1, Serine/threonine-protein kinase pim-2; assay: Inhibition of PIM2 (unknown origin) by FRET based Z-LYTE kinase assay

T3 sequence (P11309 whole entry): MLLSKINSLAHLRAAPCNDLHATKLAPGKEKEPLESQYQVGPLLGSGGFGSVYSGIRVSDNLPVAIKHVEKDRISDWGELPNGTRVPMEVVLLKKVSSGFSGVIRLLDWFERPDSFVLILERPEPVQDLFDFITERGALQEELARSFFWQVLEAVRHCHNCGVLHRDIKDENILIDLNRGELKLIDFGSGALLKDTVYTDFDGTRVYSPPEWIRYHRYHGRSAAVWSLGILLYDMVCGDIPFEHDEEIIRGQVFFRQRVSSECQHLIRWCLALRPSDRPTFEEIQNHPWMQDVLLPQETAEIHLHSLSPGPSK
T1 sequence (Q9P1W9 whole entry): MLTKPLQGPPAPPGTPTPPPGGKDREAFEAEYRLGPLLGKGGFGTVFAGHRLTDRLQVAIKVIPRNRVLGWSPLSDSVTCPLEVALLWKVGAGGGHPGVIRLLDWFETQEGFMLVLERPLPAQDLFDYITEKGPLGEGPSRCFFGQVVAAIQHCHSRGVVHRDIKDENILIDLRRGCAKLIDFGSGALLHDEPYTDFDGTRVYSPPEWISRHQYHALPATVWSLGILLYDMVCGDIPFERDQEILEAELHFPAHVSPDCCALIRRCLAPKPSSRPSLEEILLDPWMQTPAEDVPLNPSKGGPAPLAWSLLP

IC50 [1]: 0.002 µM | IC50 [2]: 0.003 µM | IC50 [3]: 0.002 µM
SMILES: CC(C)n1c(C2CCNCC2)nc2c([N+](=O)[O-])c(Br)c(Br)cc21 [DAPOLSERTIB]

IC50 [7]: 0.5 µM | IC50 (HCT-116 [8]): 45.3 µM | IC50 (MV4-11): 35.5 µM | IC50 [9]: 0.13 µM
SMILES: Cc1nc2cccc3c2nc1N[C@H](C)/C=C\C[C@H]1CNC(=O)c2cc-3[nH]c21

IC50 [12]: 0.0168 µM | IC50 [13]: > 10 µM
SMILES: COc1ncc2cc1NS(=O)(=O)c1cccc(c1)C(=O)NCc1cccc(c1)-c1ncnc3c1SC2=C3

IC50 [1]: 0.005 µM | IC50 [2]: 0.003 µM | IC50 [3]: 0.003 µM
SMILES: C[C@@H]1CCCN(c2c(/C=C3\SC(=O)NC3=O)cccc2-c2ccccc2)C1

IC50 [4]: 0.365 µM
SMILES: N#Cc1c(-c2ccccc2)cc(-c2ccccc2)nc1OCCCCC(=O)NO

IC50 [4]: 9.39 µM
SMILES: CCc1ccc(NC(=O)c2sc3nc(-c4ccc(OC)c(OC)c4)cc(-c4ccc(O)c(O)c4)c3c2N)cc1

Ki [14]: 0.00028 µM | Ki [15]: 0.00055 µM
SMILES: CC(C)(C)Nc1nnc(-c2ccc3[nH]cc(-c4nccc(C5CC5)n4)c3c2)o1

IC50 [16]: 43 µM
SMILES: N#Cc1nnc2c3c(-c4ccccc4Cl)c(C#N)c(=O)[nH]c3nn2c1N

IC50 [22]: 0.006 µM | IC50 [23]: 0.006 µM
SMILES: Cc1ccc(-c2cncc(NCCN(C)C)n2)cc1CC1SC(=O)NC1=O (centres undefined)

The remaining lines, values behind:

SMILES: CC(C)(O)[C@H]1CC[C@H](Nc2ccc3ncc(-c4cccc(C(F)(F)F)c4)n3n2)CC1 [NUVISERTIB]
IC50 [1]: 0.239 µM | IC50 [2]: 0.042 µM | IC50 [3]: 0.005 µM

SMILES: N#Cc1c(-c2ccccc2)cc(-c2ccccc2)nc1OCCCC(=O)NO
IC50 [4]: 0.344 µM

SMILES: Cc1nc2sc3c(c2c(C)c1Br)NC(c1ccccc1Cl)NC3=O (centres undefined)
IC50 (MCF7 [5]): 23.8 µM | IC50 (HCT-116 [6]): 18.6 µM

SMILES: Cc1nc2sc3c(c2c(C)c1Br)NC(c1ccc(O)c(O)c1)NC3=O (centres undefined)
IC50 (HCT-116 [10]): 0.37 µM | IC50 (MCF7 [11]): 0.22 µM

SMILES: Fc1cncc(-c2ccc3[nH]c4ncnc(N[C@H]5CC[C@H](N6CCOCC6)CC5)c4c3c2)c1
IC50 [4]: 0.0046 µM

SMILES: NCCN1CCN(CCN2c3ccncc3Oc3ccc(Br)cc32)CC1
IC50 [3]: 0.0009 µM

SMILES: Cc1ccc(C(C)C)c(O)c1/C=N/N=C1NC(=O)C(CC(=O)O)S1 (centres undefined)
IC50 [17]: 1.38 µM | IC50 [18]: 9.4 µM | IC50 [19]: 3.54 µM | IC50 [20]: 0.091 µM | IC50 [21]: 2.96 µM
